Assay results as given in patent publication US7858349B2, “Anti-cancer compounds” (The Regents of the University of Colorado, priority 1999, dated 2010).
Like-named read-outs stand apart in the source and are kept apart here.

Assays:
PC3 PC cells = assay: Inhibition of PC3 tumor growth in vivo in nude mice; parameters: species or system athymic nude mice; key to PC3 In vivo % inhib.: an IC50 value of “0” represents no detectable anti-cancer activity for a drug in a given cell line; “Stim.” indicates the observation of a stimulatory activity on the growth of the cancer cell line; settings: percent inhibition of tumor growth in nude mice; prostate cancer; i.p. 5 mg/kg/every second day or 10 mg/kg/every fourth day
Experimental: Compounds having high in vitro cytotoxic activity were tested against implanted tumors in vivo. Athymic nude mice were implanted subcutaneously with suspensions (2 million SHP-77 SCLC cells, 1 million A549 NSCLC cells or 1.5 million PC3 PC cells) in Matrigel suspension. On the eighth day after tumor implantation groups of 5 mice bearing implants were injected intraperitoneally with the compounds being tested at 5 mg/kg/every second day or at 10 mg/kg/every fourth day; control animals were injected with an equal volume of isotonic saline. Less soluble compounds were initially dissolved in dimethyl sulfoxide (DMSO) and diluted with medium. In those cases the control injections contained the same concentration of DMSO. Tumor size was measured with a caliper three times per week. Tumor volume was calculated by the formula: Volume(cc)=3.14×(length)×(width)^2/6 At autopsy tumors were removed and weighed. Tumor inhibition was calculated on both weight and measurement basis. In each Table, an IC50 value of “0” represents no detectable anti-cancer activity for a drug in a given cell line and “Stim.” indicates the observation of a stimulatory activity on the growth of the cancer cell line.

SCLC strain SHP-77 = assay: MTT assay for cell survival, SCLC SHP-77 in vitro; format: cell-based, human; settings: ED50 for killing of SCLC strain SHP-77 in vitro, 4 days, 0 = no detectable activity

SMILES	PC3 In vivo % inhib. (PC3 PC cells)	IC50 (SCLC strain SHP-77; read-out: SCLC SHP-77 IC50)	IC50 (SCLC strain SHP-77; read-out: SHP-77 In vitro IC50)
O=C(N[C@@H]1CN2CCC1CC2)C(Cc1ccc(OCc2c(Cl)cccc2Cl)cc1)NC(=O)C(c1ccccc1)C1CCCCC1 (single isomer, unassigned) [M-1550 #1]	36%	2.5 µM	–
O=C(N[C@@H]1CN2CCC1CC2)C(Cc1ccc(OCc2c(Cl)cccc2Cl)cc1)NC(=O)C(c1ccccc1)C1CCCCC1 (single isomer, unassigned) [M-1550 #2]	Stim.	4 µM	–
CC1(C)CC(NC(=O)C(NC(=O)C=Cc2c(F)c(F)c(F)c(F)c2F)C2Cc3ccccc3C2)CC(C)(C)N1 (stereo not shown) [Analog M-1052, F5c-Igl-Atmp]	27%	–	7.3 µM
CC1(C)CC(NC(=O)C(Cc2c(F)c(F)c(F)c(F)c2F)NC(=O)C=Cc2c(F)c(F)c(F)c(F)c2F)CC(C)(C)N1 (stereo not shown) [Analog M-1054, F5c-F5F-Atmp]	47%	–	4.6 µM
CC1(C)CC(NC(=O)C(Cc2ccc(OCc3c(Cl)cccc3Cl)cc2)NS(=O)(=O)c2c(F)c(F)c(F)c(F)c2F)CC(C)(C)N1 (stereo not shown) [Analog M-1092, F5BS-OC2Y-Atmp]	Stim.	–	14 µM
CC1(C)CC(NC(=O)C(Cc2ccc(OCc3c(Cl)cccc3Cl)cc2)NC(=S)Nc2c(F)c(F)c(F)c(F)c2F)CC(C)(C)N1 (stereo not shown) [Analog M-1094, F5PT-OC2Y-Atmp]	52%	–	3.2 µM
CC1(C)CC(NC(=O)[C@@H](Cc2ccc(OCc3c(Cl)cccc3Cl)cc2)NC(=O)/C=C/c2c(F)c(F)c(F)c(F)c2F)CC(C)(C)N1 [Analog M-1108, F5c-D-OC2Y-Atmp]	46%	–	> 60 µM
CC1(C)CC(NC(=O)C(Cc2ccc(C#N)cc2)NC(=O)C=Cc2c(F)c(F)c(F)c(F)c2F)CC(C)(C)N1 (stereo not shown) [Analog M-1110, F5c-PCNF-Atmp]	54%	–	0.9 µM
CC1(C)CC(NC(=O)C(Cc2ccc([N+](=O)[O-])cc2)NC(=O)C=Cc2c(F)c(F)c(F)c(F)c2F)CC(C)(C)N1 (stereo not shown) [Analog M-1112, F5c-PNF-Atmp]	24%	–	30 µM
CC1(C)CC(NC(=O)C(Cc2c[nH]c3ccccc23)NC(=O)C=Cc2c(F)c(F)c(F)c(F)c2F)CC(C)(C)N1 (stereo not shown) [Analog M-1114, F5c-Trp-Atmp]	28%	–	> 60 µM
CC1(C)CC(NC(=O)C(Cc2ccc(OCc3c(Cl)cccc3Cl)cc2)NC(=O)C(C2CCCCC2)C2CCCCC2)CC(C)(C)N1 (stereo not shown) [Analog M-1116, Dca-OC2Y-Atmp]	19%	–	7.5 µM
CC1(C)CC(NC(=O)C(Cc2ccc(Br)cc2)NC(=O)C=Cc2c(F)c(F)c(F)c(F)c2F)CC(C)(C)N1 (stereo not shown) [Analog M-1144, F5c-PBF-Atmp]	20%	–	7.2 µM
CC1(C)CC(NC(=O)C(Cc2ccc(F)cc2)NC(=O)C=Cc2ccco2)CC(C)(C)N1 (stereo not shown) [Analog M-1154, 2-Fa-PFF-Atmp]	Stim	–	> 60 µM
O=C(C=Cc1c(F)c(F)c(F)c(F)c1F)NC(Cc1ccc(F)cc1)C(=O)NC1CCN(Cc2ccccc2)CC1 (stereo not shown) [Analog M-1156, F5c-PFF-Abzp]	56%	–	7.5 µM
CC1(C)CC(NC(=O)C(Cc2ccc(-c3ccccc3)cc2)NC(=O)C(c2ccc(Cl)cc2)c2ccc(Cl)cc2)CC(C)(C)N1 (stereo not shown) [Analog M-1244, Bcpa-Bip-Atmp]	59%	–	1.3 µM
O=C(NC(Cc1ccc2ccccc2c1)C(=O)N1CCC(N2CCCCC2)CC1)C(c1ccc(Cl)cc1)c1ccc(Cl)cc1 (stereo not shown) [Analog M-1246, Bcpa-Nal-Pipp]	Stim	–	3.6 µM
O=C(C=Cc1c(F)c(F)c(F)c(F)c1F)NC(Cc1ccc(-c2ccccc2)cc1)C(=O)N1CCN(c2ccccn2)CC1 (stereo not shown) [Analog M-1258, F5c-Bip-Pypz]	10%	–	48 µM
O=C(C=Cc1c(F)c(F)c(F)c(F)c1F)NC(Cc1ccc(-c2ccccc2)cc1)C(=O)N1CCN(c2ncccn2)CC1 (stereo not shown) [Analog M-1260, F5c-Bip-Pmpz]	60%	–	10 µM
O=C(C=Cc1c(F)c(F)c(F)c(F)c1F)NC(Cc1ccc(-c2ccccc2)cc1)C(=O)N1CC2CC1CN2Cc1ccccc1 (stereo not shown) [Analog M-1268, F5c-Bip-Bdbh]	36%	–	3 µM
CC1(C)CC(NC(=O)C(Cc2ccc(OCc3c(Cl)cccc3Cl)cc2)NC(=O)COc2c(F)c(F)c(F)c(F)c2F)CC(C)(C)N1 (stereo not shown) [Analog M-1358, F5po-OC2Y-Atmp]	30%	4.1 µM	–
CC1(C)CC(NC(=O)C(Cc2ccc(OCc3c(Cl)cccc3Cl)cc2)NC(=O)c2c(F)c(F)c(F)c(F)c2F)CC(C)(C)N1 (stereo not shown) [Analog M-1360, F5bz-OC2Y-Atmp]	Stim.	4.1 µM	–

SMILES	PC3 In vivo % inhib. (PC3 PC cells)	IC50 (SCLC strain SHP-77; read-out: SCLC SHP-77 IC50)	IC50 (SCLC strain SHP-77; read-out: SHP-77 In vitro IC50)
CC1(C)CC(NC(=O)C(Cc2ccc(OCc3c(Cl)cccc3Cl)cc2)NC(=O)C2=CN3CCC2CC3)CC(C)(C)N1 (stereo not shown) [Analog M-1396, Dhq-OC2Y-Atmp]	9%	15 µM	–
CC1(C)CC(NC(=O)C(Cc2ccc(OCc3c(Cl)cccc3Cl)cc2)NC(=O)C#Cc2ccccc2)CC(C)(C)N1 (stereo not shown) [Analog M-1398, Ppr-OC2Y-Atmp]	65%	8 µM	–
CC1(C)CC(NC(=O)C(Cc2ccc(OCc3c(Cl)cccc3Cl)cc2)NC(=O)C(=Cc2ccccc2)c2ccccc2)CC(C)(C)N1 (stereo not shown) [Analog M-1400, Pcn-OC2Y-Atmp]	Stim.	1.3 µM	–
CC1(C)CC(NC(=O)C(Cc2ccc(OCc3c(Cl)cccc3Cl)cc2)NC(=O)C2C(C)(C)C2(C)C)CC(C)(C)N1 (stereo not shown) [Analog M-1406, Tmcc-OC2Y-Atmp]	25%	5.3 µM	–
COc1cc(C(=O)NC(Cc2ccc(OCc3c(Cl)cccc3Cl)cc2)C(=O)NC2CC(C)(C)NC(C)(C)C2)cc(OC)c1OC (stereo not shown) [Analog M-1408, 3,4,5Tmb-OC2Y-Atmp]	Stim.	8 µM	–
CCCCCC=CC(=O)NC(Cc1ccc(OCc2c(Cl)cccc2Cl)cc1)C(=O)NC1CC(C)(C)NC(C)(C)C1 (stereo not shown) [Analog M-1412, 2Octe-OC2Y-Atmp]	38%	12 µM	–
CC1(C)CC(NC(=O)C(Cc2ccc(OCc3c(Cl)cccc3Cl)cc2)NC(=O)C=Cc2ccc3c(c2)OCO3)CC(C)(C)N1 (stereo not shown) [Analog M-1414, 34Mdc-OC2Y-Atmp]	Stim.	7.1 µM	–
CC1(C)CC(NC(=O)C(Cc2ccc(OCc3c(Cl)cccc3Cl)cc2)NC(=O)C=Cc2cccs2)CC(C)(C)N1 (stereo not shown) [Analog M-1418, Thia-OC2Y-Atmp]	9%	8.6 µM	–
CC1(C)CC(NC(=O)C(Cc2ccc(OCc3c(Cl)cccc3Cl)cc2)NC(=O)c2c(F)c(N)cc(F)c2F)CC(C)(C)N1 (stereo not shown) [Analog M-1420, Atfb-OC2Y-Atmp]	Stim.	12 µM	–
CC1(C)CC(NC(=O)C(Cc2ccc(OCc3c(Cl)cccc3Cl)cc2)NC(=O)C2(c3ccc(Cl)cc3)CC2)CC(C)(C)N1 (stereo not shown) [Analog M-1422, Cpcpc-OC2Y-Atmp]	31%	13 µM	–
O=C(/C=C/c1c(F)c(F)c(F)c(F)c1F)N[C@@H](Cc1ccc(OCc2c(Cl)cccc2Cl)cc1)C(=O)N1CCN(c2cccc(Cl)c2Cl)CC1 [Analog M-1578, F5c-OC2Y-Dcpp]	Stim.	–	–
Cc1ccccc1C=CC(=O)NC(Cc1ccc(OCc2c(Cl)cccc2Cl)cc1)C(=O)NC1CC(C)(C)NC(C)(C)C1 (stereo not shown) [Analog M-1778, Mca-OC2Y-Atmp]	–	1.5 µM	–
CC1(C)CC(NC(=O)C(Cc2ccc(OCc3c(Cl)cccc3Cl)cc2)NC(=O)CC=Cc2ccccc2)CC(C)(C)N1 (stereo not shown) [Analog M-1780, Saa-OC2Y-Atmp]	–	1.8 µM	–
CC1(C)CC(NC(=O)C(Cc2ccc(OCc3c(Cl)cccc3Cl)cc2)NC(=O)Cc2ccc(-c3ccccc3)cc2)CC(C)(C)N1 (stereo not shown) [Analog M-1782, Bipa-OC2Y-Atmp]	–	3 µM	–
CC1(C)CC(NC(=O)C(Cc2ccc(F)cc2)NC(=O)C(=Cc2ccccc2)c2ccccc2)CC(C)(C)N1 (stereo not shown) [Analog M-1788, Pcn-PFF-Atmp]	–	2.3 µM	–
CC1(C)CC(NC(=O)C(Cc2ccc(C(F)(F)F)cc2)NC(=O)C(=Cc2ccccc2)c2ccccc2)CC(C)(C)N1 (stereo not shown) [Analog M-1790, Pcn-F3MF-Atmp]	–	2.2 µM	–
CC1(C)CC(NC(=O)C(Cc2ccc(-c3ccccc3)cc2)NC(=O)Cc2ccc(-c3ccccc3)cc2)CC(C)(C)N1 (stereo not shown) [Analog M-1796, Bipa-Bip-Atmp]	–	1.5 µM	–
CC(C)CC(NC(=O)OCC1c2ccccc2-c2ccccc21)C(=O)NC1CC(C)(C)NC(C)(C)C1 (stereo not shown) [Analog M-1798, Fmoc-Leu-Atmp]	–	7.6 µM	–
CC1(C)CC(NC(=O)C(Cc2ccc(OCc3c(Cl)cccc3Cl)cc2)NC(=O)OCC2c3ccccc3-c3ccccc32)CC(C)(C)N1 (stereo not shown) [Analog M-1800, Fmoc-OC2Y-Atmp]	–	1.7 µM	–
CC1(C)CC(NC(=O)C(Cc2ccc(OCc3c(Cl)cccc3Cl)cc2)NC(=O)C(F)(F)C(F)(F)C(F)(F)C(=O)O)CC(C)(C)N1 (stereo not shown) [M-1098 #1, CHFB-OC2Y-Atmp]	–	–	> 60 µM
CC1(C)CC(NC(=O)C(Cc2ccc(OCc3c(Cl)cccc3Cl)cc2)NC(=O)C(F)(F)C(F)(F)C(F)(F)C(=O)O)CC(C)(C)N1 (stereo not shown) [M-1098 #2, CHFB-OC2Y-Atmp]	–	–	6.8 µM
